{
  "source": "patent US6365126B1",
  "about": "“Learning and short term memory defects with Neurofibromatosis 1 (NF1) expression” (Cold Spring Harbor Laboratory, priority 1997, dated 2002)",
  "key": {"[1]": {"system": "adenylyl cyclase", "assay": "Adenylyl cyclase activity assay, membrane fractions of adult brain tissues", "type": "biochemical, Drosophila", "conditions": "GTPγS 20 μM", "method": "The adenylyl cyclase activity assay described in Livingstone, M. S., Proc. Natl. Acad. Sci. USA, 82:5992-5996 (1985)) was modified as follows. The membrane fraction was extracted from either male heads with the cuticle removed to leave essentially brain tissue, or from 10 male abdomens. Twenty (20) dissected brains in 850 μl lysis buffer were homogenized, and the membrane fraction was extracted by centrifugation at 178,000 g for 10 minutes. GTPγS (final concentration, 20 μM) was added to stimulate G-protein activated adenylyl cyclase activity immediately after homogenization but before centrifugation. When assaying the basal level of adenylyl cyclase activity, GTPγS was not added. These modifications seemed to amplify the NF1 effect. Calcium concentrations were calculated according to MaxChelator v1.31 (Bers, D. M. et al., Methods. Cell. Biol., 40:3-29 (1994)). […] Biochemical assays provide direct evidence to support the electrophysiological data. Previous experiments have shown that Rut-AC expressed in a cell line can be stimulated not only by Ca^2+/calmodulin, but also by reagents that stimulate G-proteins, including GTPγS and AIF4^- (see Levin, L. R. et al., Cell, 68:479-489 (1992)). First, AC activity in membrane fractions of adult brain tissues was examined. […] Thus, GTPγS-stimulated AC activity consists of two components: one that is NF1-dependent and one that is NF1-independent."}, "[2]": {"system": "K^+ currents of body-wall muscle fibers", "assay": "Two-microelectrode voltage-clamp recording of PACAP38-induced responses, larval body-wall neuromuscular preparation", "set-up": "species or system Drosophila", "method": "PACAP38-induced responses were recorded by the two-microelectrode voltage-clamp method from body-wall muscle fibers of larvae at the third instar (Zhong, Y., Nature, 375:588-592 (1995); Arimura, A. Regulatory Peptides, 37:287-303 (1992); Spengler, D. et al., Nature, 365:170-175 (1993); Jan, L. Y. et al., J. Physiol., 262:189-214 (1976); Wu, C.-F. et al., Science, 220:1076-1078 (1983); Stewart, B. A. et al., J. Comp. Physiol., 175:179-191 (1994)). Electrophysiological recording: The larval body-wall neuromuscular preparation has been described (Zhong, Y. et al., Neuron, 14:527-536 (1995); Zhong, Y., Nature, 375:588-592 (1995); Jan, L. Y. et al., J. Physiol., 262:189-214 (1976); Wu, C.-F. et al., Science, 220:1076-1078 (1983); Stewart, B. A. et al., J Comp Physiol., 175:179-191 (1994)). The setup, saline, recording conditions and voltage paradigms were as described (Zhong, Y. et al., Neuron, 14:527-536 (1995); Zhong, Y., Nature, 375:588-592 (1995)). For recording the PACAP38-induced synaptic current, the membrane potential was clamped at −80 mV. For recording K^+ currents, command voltages were stepped from the holding potential of −80 to −50 and +20 mV, respectively. […] PACAP38 was applied by pressure ejection through a glass electrode positioned near the voltage-clamped muscle membrane. Forskolin and cAMP analogs were applied to the solution bathing the preparation."}, "[3]": {"system": "K^+ currents of body-wall muscle fibers", "conditions": "cited from earlier work"}},
  "note": "Where two headings read alike, the source gives them in different places.",
  "data": [
    {"compound": "Nc1nc2c(ncn2[C@@H]2O[C@H](COP(=O)(O)OP(=O)(O)OP(O)(O)=S)[C@@H](O)[C@H]2O)c(=O)[nH]1", "note": "[GTPγS]", "values": [
      {"measurement": "GTPγS stimulated AC activity compared with control (K33)", "setting": "[1]; NF1^P1 and NF1^P2 mutant membranes", "result": "markedly reduced"},
      {"measurement": "GTPγS-stimulated activity compared with the basal level", "setting": "[1]; NF1 mutant membranes", "result": "significant GTPγS-stimulated activity occurred above the basal level"}
    ]},
    {"compound": "CCCC(=O)Nc1ncnc2c1ncn2[C@@H]1O[C@@H]2COP(=O)(O)O[C@H]2[C@H]1OC(=O)CCC", "note": "[dibutyryl cAMP]", "values": [
      {"measurement": "effect of cAMP analog on the PACAP38 response", "setting": "[2]; NF1 mutants (NF1^P2 homozygotes, NF1^P1/NF1^P2 larvae)", "result": "restore the normal response to PACAP38"},
      {"measurement": "effect of cAMP analog on the PACAP38 response", "setting": "[2]; wild-type larvae", "result": "appeared not to disrupt the PACAP38 response"},
      {"measurement": "PACAP38-like enhancement of K^+ currents by cAMP analog alone", "setting": "[3]; larval neuromuscular preparation, no PACAP38", "result": "insufficient"}
    ]},
    {"compound": "PACAP38", "values": [
      {"measurement": "PACAP38-induced enhancement of K^+ currents", "setting": "[2]; Gap1 null mutants rI^533B1 and rI^533PB", "result": "normal enhancement"},
      {"measurement": "PACAP38-induced enhancement of K^+ currents", "setting": "[2]; NF1^P1 and NF1^P2 mutant larvae", "result": "abolished"},
      {"measurement": "PACAP38-induced inward current", "setting": "[2]; NF1^P1 and NF1^P2 mutant larvae, membrane potential clamped at -80 mV", "result": "remained mostly intact"},
      {"measurement": "PACAP38-induced enhancement of K^+ currents", "setting": "[3]; wild-type larvae, perfusion to the neuromuscular junction", "result": 100, "unit": "fold"}
    ]}
  ]
}
